Where two headings read alike, the source gives them in different places.

Data set [1] can be described thus: compatibility and stability of additives dissolved or suspended in water-based polyacrylic acid carbomer matrixes. Particulars: for compatibility in carrier matrix: short term. The text has this:
(§1) The differing chemical characteristics of the various additives require each ingredient or blend of ingredients to be dissolved or suspended in a customized matrix in order to ensure desired delivery of the additive in question. […] A number of characteristics were studied for each desired additive compound or complex, such as the degree of chemical affinity to water, solubility rates in various solvents and at various levels of pH, and degradation rates upon exposure to various environmental factors including oxygen levels in ambient air and temperature, as well as individual tolerance to extreme shifts in pH levels.

Data set [2] is described as follows: solubility characteristics of additives.
Source text: as §1
This is accomplished, for example, in a suspension of 3% Xanthan gum and 0.5% Noveon Carbopol Carbomer in distilled water with 20% Ethanol (to aid in speeding the drying time). This solution is then sprayed on to the interior of the cup and allowed to dry. […] Again, this would be delivered in a flavor-masked suspension of 3% Xanthan gum and 0.5% Noveon Carbopol Carbomer.

Setting [3] is: dissolved or suspended in water-based polyacrylic acid carbomer matrixes.
Setting [4] is: require suspension prior to administration to the cup.

For `C[C@H](N)C(=O)O` [Alanine], the “stability in carrier matrix” value in data set [1] is “stable”. In data set [1] (setting [3]), the “compatibility in carrier matrix” value is given as “compatible”.

For the compound `N=C(N)NCCC[C@H](N)C(=O)O` [Arginine], the “stability in carrier matrix” value in data set [1] is given as “stable”. Further, the “compatibility in carrier matrix” value in data set [1] (setting [3]) is on record as “compatible”.

As to `NC(=O)C[C@H](N)C(=O)O` [Asparagine], in data set [1], the “stability in carrier matrix” value is “stable”. The “compatibility in carrier matrix” value in data set [1] (setting [3]) is listed as “compatible”.

Take `N[C@@H](CC(=O)O)C(=O)O` [Aspartic acid]: the “stability in carrier matrix” value in data set [1] is recorded as “stable”. Besides, in data set [1] (setting [3]), the “compatibility in carrier matrix” value is given as “compatible”.

Regarding `O=C(O)CCCC[C@@H]1SC[C@@H]2NC(=O)N[C@@H]21` [Biotin], the “stability in carrier matrix” value in data set [1] is given as “stable”. Further, the “compatibility in carrier matrix” value in data set [1] (setting [3]) is “compatible”.

Regarding `C[N+](C)(C)CCO` [Choline], in data set [1], the “stability in carrier matrix” value was “stable”.

With `[Cr]` [Chromium], the solubility entry in data set [2] (setting [4]) is “Insoluble”.

Regarding `COC1=C(OC)C(=O)C(C/C=C(\C)CC/C=C(\C)CC/C=C(\C)CC/C=C(\C)CC/C=C(\C)CC/C=C(\C)CC/C=C(\C)CC/C=C(\C)CC/C=C(\C)CCC=C(C)C)=C(C)C1=O` [Coenzyme Q10], the solubility result in data set [2] (setting [4]) is reported as “Insoluble”.

As for `[Cu]` [Copper], the solubility entry in data set [2] is given as “Insoluble”.

Turning to `N[C@@H](CS)C(=O)O` [Cysteine], the “stability in carrier matrix” value in data set [1] was “stable”. Further, the “compatibility in carrier matrix” value in data set [1] (setting [3]) is “compatible”.

For the compound `Nc1nc2ncc(CNc3ccc(C(=O)N[C@@H](CCC(=O)O)C(=O)O)cc3)nc2c(=O)[nH]1` [Folic Acid], the solubility entry in data set [2] was “Insoluble”.

With `N[C@@H](CCC(=O)O)C(=O)O` [Glutamic acid], the “stability in carrier matrix” value in data set [1] (dissolved or suspended in water-based polyacrylic acid carbomer matrixes, longer term) is “stable”. The “compatibility in carrier matrix” value in data set [1] (setting [3]) is “compatible”.

As for `NC(=O)CC[C@H](N)C(=O)O` [Glutamine], the “stability in carrier matrix” value in data set [1] is “stable”. For the same compound, the “compatibility in carrier matrix” value in data set [1] (setting [3]) was “compatible”.

For `NCC(=O)O` [Glycine], the “stability in carrier matrix” value in data set [1] is listed as “stable”. Further, the “compatibility in carrier matrix” value in data set [1] (setting [3]) was “compatible”.

With `N[C@@H](Cc1c[nH]cn1)C(=O)O` [Histidine], in data set [1], the “stability in carrier matrix” value is given as “stable”. Further, the “compatibility in carrier matrix” value in data set [1] (setting [3]) is reported as “compatible”.

For `CC[C@H](C)[C@H](N)C(=O)O` [Isoleucine], the “stability in carrier matrix” value in data set [1] is listed as “stable”. The “compatibility in carrier matrix” value in data set [1] (setting [3]) is recorded as “compatible”.

Regarding `CC(C)C[C@H](N)C(=O)O` [Leucine], the “stability in carrier matrix” value in data set [1] is “stable”. In addition, the “compatibility in carrier matrix” value in data set [1] (setting [3]) was “compatible”.

With `NCCCC[C@H](N)C(=O)O` [Lysine], the “stability in carrier matrix” value in data set [1] is “stable”. Further, the “compatibility in carrier matrix” value in data set [1] (setting [3]) is recorded as “compatible”.

For the compound `[Mg+2]` [Magnesium], the solubility result in data set [2] (setting [4]) is on record as “Insoluble”.

`[Mn+2]` [Manganese]: the solubility entry in data set [2] (setting [4]) is given as “Insoluble”.

With `CSCC[C@H](N)C(=O)O` [Methionine], the “stability in carrier matrix” value in data set [1] is reported as “stable”. In data set [1] (setting [3]), the “compatibility in carrier matrix” value is “compatible”.

Turning to `[Mo]` [Molybdenum], the solubility result in data set [2] is “Insoluble”.

Take `Nc1ccc(C(=O)O)cc1` [PABA, Para-Aminobenzoic Acid]: the solubility entry in data set [2] (setting [4]) is “Insoluble”.

Regarding `N[C@@H](Cc1ccccc1)C(=O)O` [Phenylalanine], in data set [1], the “stability in carrier matrix” value is reported as “stable”. Moreover, the “compatibility in carrier matrix” value in data set [1] (setting [3]) is “compatible”.

`[K+]` [Potassium]: the solubility entry in data set [2] was “Insoluble”.

For `O=C(O)[C@@H]1CCCN1` [Proline], the “stability in carrier matrix” value in data set [1] is recorded as “stable”. Also, the “compatibility in carrier matrix” value in data set [1] (setting [3]) is on record as “compatible”.

With `[Se]` [Selenium], in data set [2] (setting [4]), the solubility result is listed as “Insoluble”.

`N[C@@H](CO)C(=O)O` [Serine]: the “stability in carrier matrix” value in data set [1] is on record as “stable”. The “compatibility in carrier matrix” value in data set [1] (setting [3]) is “compatible”.

As to `C[C@@H](O)[C@H](N)C(=O)O` [Threonine], the “stability in carrier matrix” value in data set [1] was “stable”. For the same compound, in data set [1] (setting [3]), the “compatibility in carrier matrix” value is “compatible”.

`N[C@@H](Cc1c[nH]c2ccccc12)C(=O)O` [Tryptophan]: in data set [1], the “stability in carrier matrix” value is given as “stable”. In addition, in data set [1] (setting [3]), the “compatibility in carrier matrix” value is “compatible”.

On to `N[C@@H](Cc1ccc(O)cc1)C(=O)O` [Tyrosine], for which, in data set [1], the “stability in carrier matrix” value is given as “stable”. Also, the “compatibility in carrier matrix” value in data set [1] (setting [3]) is listed as “compatible”.

Take `CC(C)[C@H](N)C(=O)O` [Valine]: the “stability in carrier matrix” value in data set [1] is recorded as “stable”. The “compatibility in carrier matrix” value in data set [1] (setting [3]) was “compatible”.

For `CC1=C(/C=C/C(C)=C/C=C/C(C)=C/C=C/C=C(C)/C=C/C=C(C)/C=C/C2=C(C)CCCC2(C)C)C(C)(C)CCC1` [Vitamin A, Beta-Carotene], in data set [1], the “stability in carrier matrix” value is given as “stable”. For the same compound, the “compatibility in carrier matrix” value in data set [1] (setting [3]) is recorded as “compatible”.

In the case of `Cc1ncc(C[n+]2csc(CCO)c2C)c(N)n1` [Vitamin B1, Thiamine], the “stability in carrier matrix” value in data set [1] is “stable”. Besides, in data set [1] (setting [3]), the “compatibility in carrier matrix” value is reported as “compatible”.

Take `Cc1cc2nc3c(=O)[nH]c(=O)nc-3n(C[C@H](O)[C@H](O)[C@H](O)CO)c2cc1C` [Vitamin B2, Riboflavin]: in data set [1], the “stability in carrier matrix” value was “stable”. The “compatibility in carrier matrix” value in data set [1] (setting [3]) is on record as “compatible”.

On to `CC(C)(CO)[C@@H](O)C(=O)NCCC(=O)O` [Vitamin B5, Pantothenic Acid], for which the “stability in carrier matrix” value in data set [1] is on record as “stable”. For the same compound, the “compatibility in carrier matrix” value in data set [1] (setting [3]) is “compatible”.

Turning to `Cc1ncc(CO)c(CO)c1O` [Vitamin B6, Pyridoxine], the “stability in carrier matrix” value in data set [1] is recorded as “stable”. Moreover, the “compatibility in carrier matrix” value in data set [1] (setting [3]) is listed as “compatible”.

`[Zn]` [Zinc]: in data set [2] (setting [4]), the solubility entry is reported as “Insoluble”.

On to Cyanocobalamin [Vitamin B12], for which the “stability in carrier matrix” value in data set [1] is “stable”. For the same compound, the “compatibility in carrier matrix” value in data set [1] (setting [3]) is “compatible”.

Iodine: the solubility result in data set [2] (setting [4]) is reported as “Insoluble”.

As to Vitamin D, in data set [2] (setting [4]), the solubility result is given as “Insoluble”.

Turning to Vitamin E, the solubility entry in data set [2] was “Insoluble”.

Take Vitamin K: the solubility result in data set [2] is “Insoluble”.
